According to patent US20260355196A1, “INHIBITORS AND DEGRADERS OF PIP4K PROTEIN” (Larkspur Biosciences, Inc., priority 2023, published 2026):

Target: T1, PIP4K2C (Homo sapiens, UniProt Q8TBX8)
T1 sequence (Q8TBX8 1-421): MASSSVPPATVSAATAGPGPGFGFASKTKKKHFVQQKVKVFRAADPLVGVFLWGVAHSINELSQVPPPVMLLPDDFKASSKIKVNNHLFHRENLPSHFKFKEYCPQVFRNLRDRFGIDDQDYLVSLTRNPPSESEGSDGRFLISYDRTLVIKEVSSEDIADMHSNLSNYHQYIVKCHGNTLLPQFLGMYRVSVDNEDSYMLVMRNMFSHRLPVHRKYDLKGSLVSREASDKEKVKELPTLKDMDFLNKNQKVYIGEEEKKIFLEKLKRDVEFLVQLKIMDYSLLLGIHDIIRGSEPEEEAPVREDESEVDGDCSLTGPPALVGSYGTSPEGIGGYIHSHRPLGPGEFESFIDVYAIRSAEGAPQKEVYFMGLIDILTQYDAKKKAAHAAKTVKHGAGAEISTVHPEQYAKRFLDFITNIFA
Experiment: HiBiT PIP4K2C degradation assay in MOLT-4 cells (endogenous PIP4K2C C-terminally tagged with HiBiT)
Assay type: cell-based
Set-up: untagged in primary human PBMCs and monocyte-derived dendritic cells
Conditions: 6 hours of incubation time, rather than 24 hours; MOLT-4, top concentration 10 micromolar; read-out: HiBIT-degradation MOLT4 PIP4k2C DC50 (6 hours, marked *)
How it was run: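 Luminescent HiBiT lytic readout of residual PIP4K2C-HiBiT (CRISPR knock-in, MOLT-4, phenol red-free RPMI-1640 + 10% FBS). Cells exposed 6 or 24 h at 37 C to compound, top 10 micromolar, 3-fold, 10 points, duplicate. Hill fit (Levenberg-Marquardt) gives DC50.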

Compound	DC50
O=C1CCC(Nc2ccc(C3CCN([C@H]4CC[C@H](NC(=O)[C@H]5CC[C@H](Nc6ncc(F)c(-c7ccnc(N8CCOCC8=O)c7)n6)CC5)CC4)CC3)c(F)c2)C(=O)N1 (stereo partly drawn) [Compound 480, trans-N-((trans)-4-(4-(4-((2,6-dioxopiperidin-3-yl)amino)-2-fluorophenyl)piperidin-1-yl)cyclohexyl)-4-((5-fluoro-4-(2-(3-oxomorpholino)pyridin-4-yl)pyrimidin-2-yl)amino)cyclohexane-1-carboxamide]	< 0.5 µM
Cn1nc(C2CCC(=O)NC2=O)c2ccc(C3CCN(CCN4CCC(C(=O)N[C@H]5CC[C@H](Nc6ncc(F)c(-c7cccc(-n8ccccc8=O)c7)n6)CC5)CC4)CC3)cc21 (mixture of isomers) [Compound 534, 1-(2-(4-(3-(2,6-dioxopiperidin-3-yl)-1-methyl-1H-indazol-6-yl)piperidin-1-yl)ethyl)-N-((1r,4r)-4-((5-fluoro-4-(3-(2-oxopyridin-1(2H)-yl)phenyl)pyrimidin-2-yl)amino)cyclohexyl)piperidine-4-carboxamide]	< 0.5 µM
O=C1CCC(Nc2ccc(C3CCN(CC4CCN(C(=O)N5CCC(Nc6ncc(F)c(-c7cccc(-n8ccccc8=O)c7)n6)CC5)CC4)CC3)c(F)c2)C(=O)N1 (stereo not drawn) [Compound 465, 3-((3-fluoro-4-(1-((1-(4-((5-fluoro-4-(3-(2-oxopyridin-1 (2H)-yl)phenyl)pyrimidin-2-yl)amino)piperidine-1-carbonyl)piperidin-4-yl)methyl)piperidin-4-yl)phenyl)amino)piperidine-2,6-dione]	< 0.5 µM
O=C1CCC(Nc2ccc(N3CCC(N4CCC(C(=O)N[C@H]5CC[C@H](Nc6ncc(F)c(-c7cccc(N8CCOCC8=O)c7)n6)CC5)CC4)C(F)(F)C3)c(F)c2)C(=O)N1 (stereo partly drawn) [Compound 501, trans-1′-(4-((2,6-dioxopiperidin-3-yl)amino)-2-fluorophenyl)-3′,3′-difluoro-N-(4-((5-fluoro-4-(3-(3-oxomorpholino)phenyl)pyrimidin-2-yl)amino)cyclohexyl)-[1,4′-bipiperidine]-4-carboxamide]	< 0.5 µM
O=C1CCC(Nc2ccc(C3CCN(CC4(O)CCN(C(=O)[C@H]5CC[C@H](Nc6ncc(F)c(-c7cccc(N8CCOCC8)c7)n6)CC5)CC4)CC3)c(F)c2)C(=O)N1 (stereo partly drawn) [Compound 665, 3-((3-fluoro-4-(1-((1-((trans)-4-((5-fluoro-4-(3-morpholinophenyl)pyrimidin-2-yl)amino)cyclohexane-1-carbonyl)-4-hydroxypiperidin-4-yl)methyl)piperidin-4-yl)phenyl)amino)piperidine-2,6-dione]	< 0.5 µM
O=C1CCC(Nc2ccc(N3CCC(CN4CCN(C(=O)[C@H]5CC[C@H](Nc6ncc(F)c(-c7cccc(N8CCCOC8=O)c7)n6)CC5)CC4)CC3)c(F)c2)C(=O)N1 (stereo partly drawn) [Compound 428, trans-3-((3-fluoro-4-(4-((4-(4-((5-fluoro-4-(3-(2-oxo-1,3-oxazinan-3-yl)phenyl)pyrimidin-2-yl)amino)cyclohexane-1-carbonyl)piperazin-1-yl)methyl)piperidin-1-yl)phenyl)amino)piperidine-2,6-dione]	< 0.5 µM
O=C1CCC(Nc2ccc(C3CCN(C[C@H]4CC[C@H](C(=O)N5CCC(Nc6ncc(F)c(-c7cccc(N8CCCOC8=O)c7)n6)CC5)CC4)CC3)c(F)c2)C(=O)N1 (stereo partly drawn) [Compound 684, trans-3-((3-fluoro-4-(1-((4-(4-((5-fluoro-4-(3-(2-oxo-1,3-oxazinan-3-yl)phenyl)pyrimidin-2-yl)amino)piperidine-1-carbonyl)cyclohexyl)methyl)piperidin-4-yl)phenyl)amino)piperidine-2,6-dione]	< 0.5 µM
O=C1CCC(Nc2ccc(C3CCN(CC4(F)CCN(C(=O)[C@H]5CC[C@H](Nc6ncc(F)c(-c7cccc(-n8ccccc8=O)c7)n6)CC5)CC4)CC3)c(F)c2)C(=O)N1 (stereo partly drawn) [Compound 487, trans-3-((3-fluoro-4-(1-((4-fluoro-1-(4-((5-fluoro-4-(3-(2-oxopyridin-1(2H)-yl)phenyl)pyrimidin-2-yl)amino)cyclohexane-1-carbonyl)piperidin-4-yl)methyl)piperidin-4-yl)phenyl)amino)piperidine-2,6-dione]	< 0.5 µM
O=C1CCC(Nc2ccc(C3CCN([C@H]4CC[C@H](NC(=O)[C@H]5CC[C@H](Nc6ncc(F)c(-c7cccc(N8CCOCC8=O)n7)n6)CC5)CC4)CC3)c(F)c2)C(=O)N1 (stereo partly drawn) [Compound 545, trans-N-(trans-4-(4-(4-((2,6-dioxopiperidin-3-yl)amino)-2-fluorophenyl)piperidin-1-yl)cyclohexyl)-4-((5-fluoro-4-(6-(3-oxomorpholino)pyridin-2-yl)pyrimidin-2-yl)amino)cyclohexane-1-carboxamide]	< 0.5 µM
O=C1CCC(Nc2ccc(C3CCN(CC4(O)CCN(C(=O)[C@H]5CC[C@H](Nc6ncc(F)c(-c7cccc(N8CCCCC8=O)c7)n6)CC5)CC4)CC3)c(F)c2)C(=O)N1 (stereo partly drawn) [Compound 579, 3-((3-fluoro-4-(1-((1-(trans-4-((5-fluoro-4-(3-(2-oxopiperidin-1-yl)phenyl)pyrimidin-2-yl)amino)cyclohexane-1-carbonyl)-4-hydroxypiperidin-4-yl)methyl)piperidin-4-yl)phenyl)amino)piperidine-2,6-dione]	< 0.5 µM
trans-(1r,4R)-4-(4-(4-((2,6-dioxopiperidin-3-yl)amino)-2-fluorophenyl)piperidin-1-yl)-N-((1r,4R)-4-((5-fluoro-4-(6-(2-oxo-1,3-oxazinan-3-yl)pyridin-2-yl)pyrimidin-2-yl)amino)cyclohexyl)cyclohexane-1-carboxamide [Compound 539]	> 5 µM
O=C1CCC(Nc2ccc(N3CCN([C@H]4CC[C@H](NC(=O)[C@H]5CC[C@H](Nc6ncc(F)c(-c7cccc(N8CCCCC8)c7)n6)CC5)CC4)CC3)c(F)c2)C(=O)N1 (stereo partly drawn) [Compound 527, trans-(1r,4R)—N-((1r,4R)-4-(4-(4-((2,6-dioxopiperidin-3-yl)amino)-2-fluorophenyl)piperazin-1-yl)cyclohexyl)-4-((5-fluoro-4-(3-(piperidin-1-yl)phenyl)pyrimidin-2-yl)amino)cyclohexane-1-carboxamide]	< 0.5 µM

Same assay, conditions: 24 hours incubation, MOLT-4, top concentration 10 micromolar; read-out: HiBIT-degradation MOLT4 PIP4k2C 24 hours DC50

Compound	DC50
O=C1CCC(n2c(=O)oc3cc(C4CCN(CC5CCN(CC(=O)N[C@H]6CC[C@H](Nc7ncc(F)c(-c8cccc(N9CCOC9=O)c8)n7)CC6)CC5)CC4)ccc32)C(=O)N1 (stereo partly drawn) [Compound 363, trans-2-[4-[[4-[3-(2,6-dioxo-3-piperidyl)-2-oxo-1,3-benzoxazol-6-yl]-1-piperidyl]methyl]-1-piperidyl]-N-[4-[[5-fluoro-4-[3-(2-oxooxazolidin-3-yl)phenyl]pyrimidin-2-yl]amino]cyclohexyl]acetamide]	< 0.5 µM
O=C1CCC(N2Cc3cc(OC4CCN(CC5CCN(CC(=O)N6CCC(Nc7ncc(Cl)c(-c8cccc(-c9ccccc9)c8)n7)CC6)CC5)CC4)ccc3C2=O)C(=O)N1 (stereo not drawn) [Compound 85, 3-(5-((1-((1-(2-(4-((4-([1,1′-biphenyl]-3-yl)-5-chloropyrimidin-2-yl)amino)piperidin-1-yl)-2-oxoethyl)piperidin-4-yl)methyl)piperidin-4-yl)oxy)-1-oxoisoindolin-2-yl)piperidine-2,6-dione]	< 0.5 µM
Cn1c(=O)n(C2CCC(=O)NC2=O)c2ccc(C3CCN(CC4CCN(CC(=O)N5CCC(Nc6ncc(Cl)c(-c7cccc(-c8ccc(F)cc8)c7)n6)CC5)CC4)CC3)cc21 (stereo not drawn) [Compound 287, 3-(5-(1-((1-(2-(4-((5-chloro-4-(4′-fluoro-[1,1′-biphenyl]-3-yl)pyrimidin-2-yl)amino)piperidin-1-yl)-2-oxoethyl)piperidin-4-yl)methyl)piperidin-4-yl)-3-methyl-2-oxo-2,3-dihydro-1H-benzo[d]imidazol-1-yl)piperidine-2,6-dione]	< 0.5 µM
O=C1CCC(Nc2ccc(C3CCN(C4CCN(CCC(=O)N5CCC(Nc6ncc(F)c(-c7cccc(-n8ccccc8=O)c7)n6)CC5)CC4)CC3)c(F)c2)C(=O)N1 (stereo not drawn) [Compound 343, 3-((3-fluoro-4-(1′-(3-(4-((5-fluoro-4-(3-(2-oxopyridin-1(2H)-yl)phenyl)pyrimidin-2-yl)amino)piperidin-1-yl)-3-oxopropyl)-[1,4′-bipiperidin]-4-yl)phenyl)amino)piperidine-2,6-dione]	< 0.5 µM
O=C1CCC(Nc2ccc(N3CCC(N4CCC(CNC(=O)[C@H]5CCC[C@@H](Nc6ncc(F)c(-c7cccc(-n8ccccc8=O)c7)n6)C5)CC4)CC3)cc2)C(=O)N1 (relative stereo) [Compound 297, cis-N-((1′-(4-((2,6-dioxopiperidin-3-yl)amino)phenyl)-[1,4′-bipiperidin]-4-yl)methyl)-3-((5-fluoro-4-(3-(2-oxopyridin-1(2H)-yl)phenyl)pyrimidin-2-yl)amino)cyclohexane-1-carboxamide]	< 0.5 µM
Cn1c(=O)n(C2CCC(=O)NC2=O)c2ccc(C3CCN(C4CCCN(CC(=O)N5CCC(Nc6ncc(Cl)c(-c7cccc(-c8ccc(F)cc8)c7)n6)CC5)C4)CC3)cc21 (stereo not drawn) [Compound 275, 3-(5-(1′-(2-(4-((5-chloro-4-(4′-fluoro-[1,1′-biphenyl]-3-yl)pyrimidin-2-yl)amino)piperidin-1-yl)-2-oxoethyl)-[1,3′-bipiperidin]-4-yl)-3-methyl-2-oxo-2,3-dihydro-1H-benzo[d]imidazol-1-yl)piperidine-2,6-dione]	< 0.5 µM
